Test results reported in ChEMBL document CHEMBL1137297, “Synthesis and pharmacological evaluation of novel octahydro-1H-pyrido[1,2-a]pyrazine as mu-opioid receptor antagonists” (J Med Chem, 2006).

Each compound was assayed against T1, Mu-type opioid receptor (Homo sapiens, UniProt P35372) (assay: Antagonist activity assessed as inhibition of loperamide-stimulated [35S]GTPgammaS binding to human mu opioid receptor expressed in CHO cells).
Assay type: functional, cell-based

T1 sequence (P35372 whole entry): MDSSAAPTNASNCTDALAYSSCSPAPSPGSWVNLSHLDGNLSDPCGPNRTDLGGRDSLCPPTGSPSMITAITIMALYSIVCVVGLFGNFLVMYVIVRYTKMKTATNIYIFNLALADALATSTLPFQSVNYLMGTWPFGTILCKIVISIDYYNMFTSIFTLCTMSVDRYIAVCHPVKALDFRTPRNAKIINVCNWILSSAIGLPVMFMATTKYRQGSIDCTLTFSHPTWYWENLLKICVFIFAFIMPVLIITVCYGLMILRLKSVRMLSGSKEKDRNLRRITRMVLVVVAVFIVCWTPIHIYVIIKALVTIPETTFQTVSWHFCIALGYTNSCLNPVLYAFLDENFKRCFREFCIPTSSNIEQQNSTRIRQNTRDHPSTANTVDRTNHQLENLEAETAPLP

SMILES | IC50 [nM]
C[C@H]1CN2CCN(Cc3ccc4ccccc4c3)C[C@H]2C[C@@]1(C)c1cccc(O)c1 | 74
C[C@H]1CN2CCN(CCc3ccccc3)C[C@H]2C[C@@]1(C)c1cccc(O)c1 | 2
C[C@H]1CN2CCN(Cc3ccsc3)C[C@H]2C[C@@]1(C)c1cccc(O)c1 | 1.4
C[C@H]1CN2CCN(C(=O)c3ccccc3)C[C@H]2C[C@@]1(C)c1cccc(O)c1 | 2.1
C[C@H]1CN2CCN(Cc3cccc(Cl)c3)C[C@H]2C[C@@]1(C)c1cccc(O)c1 | 1.8
C[C@H]1CN2CCN(C(=O)CCc3ccccc3)C[C@H]2C[C@@]1(C)c1cccc(O)c1 | 78

What follows are compounds tested against T2, Kappa-type opioid receptor (Homo sapiens, UniProt P41145) (assay: Antagonist activity assessed as inhibition of U50488-stimulated [35S]GTP-gamma-S binding to human kappa opioid receptor expressed in CHO cells).
Assay type: functional, cell-based

T2 sequence (P41145 whole entry): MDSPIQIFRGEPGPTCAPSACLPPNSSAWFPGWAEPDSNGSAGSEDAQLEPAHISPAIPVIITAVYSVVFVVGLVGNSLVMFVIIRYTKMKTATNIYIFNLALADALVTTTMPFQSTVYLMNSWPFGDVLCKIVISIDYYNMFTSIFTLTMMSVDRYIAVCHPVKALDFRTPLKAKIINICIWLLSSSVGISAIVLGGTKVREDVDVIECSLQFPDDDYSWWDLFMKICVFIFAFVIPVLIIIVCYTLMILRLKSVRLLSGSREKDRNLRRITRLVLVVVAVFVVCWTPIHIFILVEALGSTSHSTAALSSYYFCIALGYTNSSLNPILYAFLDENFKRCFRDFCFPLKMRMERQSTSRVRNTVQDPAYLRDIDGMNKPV

SMILES | IC50 [nM]
C[C@H]1CN2C[C@H](c3ccccc3)N(C)C[C@H]2C[C@@]1(C)c1cccc(O)c1 | 2.4
C[C@H]1CN2C[C@H](c3ccccc3)CC[C@H]2C[C@@]1(C)c1cccc(O)c1 | 3.2
C[C@H]1CN2CCN(CCc3ccccc3)C[C@H]2C[C@@]1(C)c1cccc(O)c1 | 20
C[C@H]1CN2CCN(C(=O)c3ccccc3)C[C@H]2C[C@@]1(C)c1cccc(O)c1 | 50

The compounds below were run against T2, Kappa-type opioid receptor (assay: Displacement of [3H]diprenorphine from human cloned kappa opioid receptor expressed in CHO cells).
Assay type: cell-based

SMILES | Ki [nM]
C[C@H]1CN2C[C@H](c3ccccc3)N(C)C[C@H]2C[C@@]1(C)c1cccc(O)c1 | 13
C[C@H]1CN2CCN(Cc3ccc4ccccc4c3)C[C@H]2C[C@@]1(C)c1cccc(O)c1 | 980
C[C@H]1CN2CCN(Cc3ccsc3)C[C@H]2C[C@@]1(C)c1cccc(O)c1 | 38
C[C@H]1CN2CCN(C(=O)c3ccccc3)C[C@H]2C[C@@]1(C)c1cccc(O)c1 | 180
C[C@H]1CN2CCN(Cc3cccc(Cl)c3)C[C@H]2C[C@@]1(C)c1cccc(O)c1 | 83

The compounds below were run against T3, Delta-type opioid receptor (Homo sapiens, UniProt P41143) (assay: Displacement of [3H]diprenorphine from human cloned delta opioid receptor expressed in CHO cells).
Assay type: cell-based

T3 sequence (P41143 whole entry): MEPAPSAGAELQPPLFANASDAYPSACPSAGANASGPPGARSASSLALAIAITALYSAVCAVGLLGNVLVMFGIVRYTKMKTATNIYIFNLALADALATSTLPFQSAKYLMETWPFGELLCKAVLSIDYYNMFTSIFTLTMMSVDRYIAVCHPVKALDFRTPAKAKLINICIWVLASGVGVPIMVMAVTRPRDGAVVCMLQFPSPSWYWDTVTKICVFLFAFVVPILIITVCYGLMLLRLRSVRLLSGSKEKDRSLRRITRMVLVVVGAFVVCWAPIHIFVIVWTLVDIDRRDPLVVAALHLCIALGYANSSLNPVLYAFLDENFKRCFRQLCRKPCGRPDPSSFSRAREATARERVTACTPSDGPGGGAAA

SMILES | Ki [nM]
C[C@H]1CN2C[C@H](c3ccccc3)N(C)C[C@H]2C[C@@]1(C)c1cccc(O)c1 | 2300
C[C@H]1CN2C[C@H](c3ccccc3)N(Cc3ccccc3)C[C@H]2C[C@@]1(C)c1cccc(C(=O)O)c1 | 2500
C[C@H]1CN2CCN(Cc3ccsc3)C[C@H]2C[C@@]1(C)c1cccc(O)c1 | 340
C[C@H]1CN2CCN(Cc3cccc(Cl)c3)C[C@H]2C[C@@]1(C)c1cccc(O)c1 | 360
C[C@H]1CN2CCN(C(=O)CCc3ccccc3)C[C@H]2C[C@@]1(C)c1cccc(O)c1 | 140

These compounds were tested against T1, Mu-type opioid receptor (assay: Displacement of [3H]diprenorphine from human cloned mu opioid receptor expressed in CHO cells).
Assay type: cell-based

SMILES | Ki [nM]
C[C@H]1CN2CCN(Cc3ccc4ccccc4c3)C[C@H]2C[C@@]1(C)c1cccc(O)c1 | 90
C[C@H]1CN2CCN(Cc3ccsc3)C[C@H]2C[C@@]1(C)c1cccc(O)c1 | 3
CC(=O)N1CCN2C[C@H](C)[C@](C)(c3cccc(O)c3)C[C@@H]2C1 | 520
C[C@H]1CN2CCN(Cc3cccc(Cl)c3)C[C@H]2C[C@@]1(C)c1cccc(O)c1 | 1.5
C[C@H]1CN2CCN(C(=O)CCc3ccccc3)C[C@H]2C[C@@]1(C)c1cccc(O)c1 | 160

These compounds were tested against T1, Mu-type opioid receptor (assay: Inhibition of [3H]diprenorphine binding to human cloned mu opioid receptor expressed in CHO cells at 10 uM).
Assay type: cell-based

SMILES | inhibition [%]
COC(=O)c1cccc([C@]2(C)C[C@@H]3CN(Cc4ccccc4)[C@@H](c4ccccc4)CN3C[C@@H]2C)c1 | 24
C[C@H]1CN2CCN(C)C[C@H]2C[C@@]1(C)c1cccc(O)c1 | 69
C[C@H]1CN2C[C@H](c3ccccc3)N(Cc3ccccc3)C[C@H]2C[C@@]1(C)c1cccc(C(=O)O)c1 | 44

Each compound was assayed against T3, Delta-type opioid receptor (assay: Inhibition of [3H]diprenorphine binding to human cloned delta opioid receptor expressed in CHO cells at 10 uM).
Assay type: cell-based

SMILES | inhibition [%]
C[C@H]1CN2C[C@H](c3ccccc3)N(Cc3ccccc3)C[C@H]2C[C@@]1(C)c1ccccc1 | 26
COC(=O)c1cccc([C@]2(C)C[C@@H]3CN(Cc4ccccc4)[C@@H](c4ccccc4)CN3C[C@@H]2C)c1 | 39
C[C@H]1CN2CCN(C)C[C@H]2C[C@@]1(C)c1cccc(O)c1 | 11
C[C@H]1CN2CCN(Cc3ccc4ccccc4c3)C[C@H]2C[C@@]1(C)c1cccc(O)c1 | 49
CC(=O)N1CCN2C[C@H](C)[C@](C)(c3cccc(O)c3)C[C@@H]2C1 | 47

What follows are compounds tested against T3, Delta-type opioid receptor (assay: Antagonist activity assessed as inhibition of BW373U86-stimulated [35S]GTP-gamma-S binding to human delta opioid receptor expressed in CHO cells).
Assay type: functional, cell-based

SMILES | IC50 [nM]
C[C@H]1CN2C[C@H](c3ccccc3)N(C)C[C@H]2C[C@@]1(C)c1cccc(O)c1 | 580
C[C@H]1CN2C[C@H](c3ccccc3)CC[C@H]2C[C@@]1(C)c1cccc(O)c1 | 51
C[C@H]1CN2CCN(CCc3ccccc3)C[C@H]2C[C@@]1(C)c1cccc(O)c1 | 310
C[C@H]1CN2CCN(C(=O)c3ccccc3)C[C@H]2C[C@@]1(C)c1cccc(O)c1 | 14

What follows are compounds tested against T2, Kappa-type opioid receptor (assay: Inhibition of [3H]diprenorphine binding to human cloned kappa opioid receptor expressed in CHO cells at 10 uM).
Assay type: cell-based

SMILES | inhibition [%]
C[C@H]1CN2C[C@H](c3ccccc3)N(Cc3ccccc3)C[C@H]2C[C@@]1(C)c1ccccc1 | 11
COC(=O)c1cccc([C@]2(C)C[C@@H]3CN(Cc4ccccc4)[C@@H](c4ccccc4)CN3C[C@@H]2C)c1 | 6
C[C@H]1CN2CCN(C)C[C@H]2C[C@@]1(C)c1cccc(O)c1 | 60
C[C@H]1CN2C[C@H](c3ccccc3)N(Cc3ccccc3)C[C@H]2C[C@@]1(C)c1cccc(C(=O)O)c1 | 9
CC(=O)N1CCN2C[C@H](C)[C@](C)(c3cccc(O)c3)C[C@@H]2C1 | 36
C[C@H]1CN2CCN(C(=O)CCc3ccccc3)C[C@H]2C[C@@]1(C)c1cccc(O)c1 | 65
